Experimental data published in patent US20070004660A1, “Synergistic Modulation of Flt3 Kinase Using Alkylquinolines and Alkylquinazolines” (priority 2005, published 2007).

Experiments:
[1] = target: T1, isolated kinase domain of the human FLT3 receptor (a.a. 571-993) (Homo sapiens, UniProt P36888); test: FLT3 fluorescence polarization kinase assay; type: biochemical; conditions: 150 uM ATP; uncertainty ±10%
T1 construct: human FLT3 receptor (a.a. 571-993)
T1 sequence (P36888 571-993): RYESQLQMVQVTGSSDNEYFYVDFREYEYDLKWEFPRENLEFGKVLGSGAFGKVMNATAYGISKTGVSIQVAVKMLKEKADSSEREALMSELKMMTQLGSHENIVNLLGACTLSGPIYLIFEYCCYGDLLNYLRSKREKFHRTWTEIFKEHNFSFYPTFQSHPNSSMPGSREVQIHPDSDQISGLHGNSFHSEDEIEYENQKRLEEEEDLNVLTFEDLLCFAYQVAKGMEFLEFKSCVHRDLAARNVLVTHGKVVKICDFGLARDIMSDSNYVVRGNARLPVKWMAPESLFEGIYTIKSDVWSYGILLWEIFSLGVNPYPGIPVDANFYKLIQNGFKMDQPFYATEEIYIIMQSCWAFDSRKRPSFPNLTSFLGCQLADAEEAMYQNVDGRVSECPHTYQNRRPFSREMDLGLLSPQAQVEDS
Experimental: The FLT3 FP assay utilizes the fluorescein-labeled phosphopeptide and the anti-phosphotyrosine antibody included in the Panvera Phospho-Tyrosine Kinase Kit (Green) supplied by Invitrogen. When FLT3 phosphorylates polyGlu4Tyr, the fluorescein-labeled phosphopeptide is displaced from the anti-phosphotyrosine antibody by the phosphorylated poly Glu4Tyr, thus decreasing the FP value. The FLT3 kinase reaction is incubated at room temperature for 30 minutes under the following conditions: 10 nM FLT3 571-993, 20 ug/mL poly Glu4Tyr, 150 uM ATP, 5 mM MgCl2, 1% compound in DMSO. The kinase reaction is stopped with the addition of EDTA. The fluorescein-labeled phosphopeptide and the anti-phosphotyrosine antibody are added and incubated for 30 minutes at room temperature.
All data points are an average of triplicate samples. Inhibition and IC50 data analysis was done with GraphPad Prism using a non-linear regression fit with a multiparamater, sigmoidal dose-response (variable slope) equation.

MV4-11 cells = test: Inhibition of MV4-11 cell proliferation (CellTiterGlo, 72 h); type: cell-based; conditions: Homo sapiens; 72 h growth inhibition; uncertainty ±20%
Experimental: MV4-11 cells cannot grow and survive without active FLT3ITD.
To measure proliferation inhibition by test compounds, the luciferase based CellTiterGlo reagent (Promega), which quantifies total cell number based on total cellular ATP concentration, was used. Cells are plated at 10,000 cells per well in 100 ul of in RPMI media containing penn/strep, 10% FBS and 1 ng/ml GM-CSF or 1 ng/ml IL-3 for MV4-11 and Baf3 cells respectively.
Compound dilutions or 0.1% DMSO (vehicle control) are added to cells and the cells are allowed to grow for 72 hours at standard cell growth conditions (37° C., 5% CO2). For activity measurements in MV4-11 cells grown in 50% plasma, cells were plated at 10,000 cells per well in a 1:1 mixture of growth media and human plasma (final volume of 100 μL). To measure total cell growth an equal volume of CellTiterGlo reagent was added to each well, according to the manufacturer's instructions, and luminescence was quantified. Total cell growth was quantified as the difference in luminescent counts (relative light units, RLU) of cell number at Day 0 compared to total cell number at Day 3 (72 hours of growth and/or compound treatment). One hundred percent inhibition of growth is defined as an RLU equivalent to the Day 0 reading. Zero percent inhibition was defined as the RLU signal for the DMSO vehicle control at Day 3 of growth. All data points are an average of triplicate samples. […] Inhibition and IC50 data analysis was done with GraphPad Prism using a non-linear regression fit with a multiparamater, sigmoidal dose-response (variable slope) equation.
MV4-11 cells express the FLT3 internal tandem duplication mutation, and thus are entirely dependent upon FLT3 activity for growth. […] In contrast, the Baf3 cell proliferation is driven by the cytokine IL-3 and thus are used as a non-specific toxicity control for test compounds.

IC50 [1]	IC50 (MV4-11 cells)	SMILES
27 nM	8 nM	COc1cc2ncnc(C3CCN(C(=O)Nc4ccc(N5CCCCCC5)cc4)CC3)c2cc1OC [Example 70, 4-(6,7-Dimethoxy-quinazolin-4-yl)-piperidine-1-carboxylic acid (4-azepan-1-yl-phenyl)-amide]
9 nM	178 nM	O=C(Nc1ccc(N2CCCC2)nc1)N1CCC(c2ncnc3cc(OCCCn4cnnc4)ccc23)CC1 [Example 114, 4-[7-(3-[1,2,4]Triazol-4-yl-propoxy)-quinazolin-4-yl]-piperidine-1-carboxylic acid (6-pyrrolidin-1-yl-pyridin-3-yl)-amide]
2000 nM	4100 nM	COc1cc2ncnc(C3CCN(C(=O)Nc4ccc5c(c4)CCO5)CC3)c2cc1OC [Example 27, 4-(6,7-Dimethoxy-quinazolin-4-yl)-piperidine-1-carboxylic acid (2,3-dihydro-benzofuran-5-yl)-amide]
83 nM	131 nM	COc1cc2ncnc(C3CCN(C(=O)Nc4ccc(OC(F)(F)F)cc4)CC3)c2cc1OC [Example 50, 4-(6,7-Dimethoxy-quinazolin-4-yl)-piperidine-1-carboxylic acid (4-trifluoromethoxy-phenyl)-amide]
139 nM	110 nM	COc1cc2ncnc(C3CCN(C(=O)Nc4ccc(N5CCCCC5)c(Cl)c4)CC3)c2cc1OC [Example 71, 4-(6,7-Dimethoxy-quinazolin-4-yl)-piperidine-1-carboxylic acid (3-chloro-4-piperidin-1-yl-phenyl)-amide]
28 nM	893 nM	O=C(Nc1ccc(N2CCOCC2)nc1)N1CCC(c2ncnc3cc(OCCCn4cnnc4)ccc23)CC1 [Example 110, 4-[7-(3-[1,2,4]Triazol-4-yl-propoxy)-quinazolin-4-yl]-piperidine-1-carboxylic acid (6-morpholin-4-yl-pyridin-3-yl)-amide]
2200 nM	1000 nM	CN1CCN(CCCOc2ccc3c(C4CCN(C(=S)Nc5ccc(N6CCOCC6)nc5)CC4)ncnc3c2)CC1 [Example 106, 4-{7-[3-(4-Methyl-piperazin-1-yl)-propoxy]-quinazolin-4-yl}-piperidine-1-carbothioic acid (6-morpholin-4-yl-pyridin-3-yl)-amide]
1 nM	9 nM	O=C(Nc1ccc(N2CCCC2)cc1)N1CCC(c2ncnc3cc(N4CC[C@H](O)C4)ccc23)CC1 [Example 129, (S)-4-[7-(3-Hydroxy-pyrrolidin-1-yl)-quinazolin-4-yl]-piperidine-1-carboxylic acid (4-pyrrolidin-1-yl-phenyl)-amide]
297 nM	149 nM	COc1ccc2ncnc(C3CCN(C(=O)Nc4ccc(OC(C)C)cc4)CC3)c2c1 [Compound 203, 4-(6-Methoxy-quinazolin-4-yl)-piperidine-1-carboxylic acid (4-isopropoxy-phenyl)-amide]
730 nM	3300 nM	COc1ccc(NC(=O)N2CCC(c3ncnc4cc(OC)c(OC)cc34)CC2)cc1 [Example 41, 4-(6,7-Dimethoxy-quinazolin-4-yl)-piperidine-1-carboxylic acid (4-methoxy-phenyl)-amide]
306 nM	> 1000 nM	CC(C)Oc1ccc(NC(=O)N2CCC(c3ncnc4cc(OCCCc5nnn[nH]5)ccc34)CC2)cc1 [Compound 204, 4-{7-[3-(1H-Tetrazol-5-yl)-propoxy]-quinazolin-4-yl}-piperidine-1-carboxylic acid (4-isopropoxy-phenyl)-amide]
1600 nM	1800 nM	COc1cc2ncnc(C3CCN(C(=O)Nc4ccc(C)cc4)CC3)c2cc1OC [Example 48, 4-(6,7-Dimethoxy-quinazolin-4-yl)-piperidine-1-carboxylic acid p-tolylamide]
990 nM	2000 nM	COc1cc2ncnc(C3CCN(C(=O)Nc4ccc(C(F)(F)F)cc4)CC3)c2cc1OC [Example 46, 4-(6,7-Dimethoxy-quinazolin-4-yl)-piperidine-1-carboxylic acid (4-trifluoromethyl-phenyl)-amide]
> 10000 nM	> 10000 nM	COc1cc2ncnc(C3CCN(C(=O)NC4CCCCC4)CC3)c2cc1OC [Example 42, 4-(6,7-Dimethoxy-quinazolin-4-yl)-piperidine-1-carboxylic acid cyclohexylamide]
94 nM	290 nM	CC(C)c1ccc(NC(=O)N2CCC(c3ccnc4ccccc34)CC2)cc1 [Example 5, 4-Quinolin-4-yl-piperidine-1-carboxylic acid (4-isopropyl-phenyl)-amide]
132 nM	360 nM	O=C(NCCCOc1ccc2c(C3CCN(C(=O)Nc4ccc(N5CCOCC5)nc4)CC3)ncnc2c1)N1CCOCC1 [Example 113, Morpholine-4-carboxylic acid (3-{4-[1-(6-morpholin-4-yl-pyridin-3-ylcarbamoyl)-piperidin-4-yl]-quinazolin-7-yloxy}-propyl)-amide]
3 nM	17 nM	CN(C)C(=O)N1CCN(c2ccc3c(C4CCN(C(=O)Nc5ccc(N6CCCC6)cc5)CC4)ncnc3c2)CC1 [Example 168, 4-{4-[1-(4-Pyrrolidin-1-yl-phenylcarbamoyl)-piperidin-4-yl]-quinazolin-7-yl}-piperazine-1-carboxylic acid dimethylamide]
21 nM	6 nM	COCC(=O)N1CCN(c2ccc3c(C4CCN(C(=O)Nc5ccc(N6CCCC6)cc5)CC4)ncnc3c2)CC1 [Compound 200]
19 nM	625 nM	CN(C)c1c(NCCCOc2ccc3c(C4CCN(C(=O)Nc5ccc(N6CCCC6)nc5)CC4)ncnc3c2)c(=O)c1=O [Example 111, 4-{7-[3-(2-Dimethylamino-3,4-dioxo-cyclobut-1-enylamino)-propoxy]-quinazolin-4-yl}-piperidine-1-carboxylic acid (6-pyrrolidin-1-yl-pyridin-3-yl)-amide]
6600 nM	1100 nM	COc1cc2ncnc(C3CCN(C(=O)Nc4ccc(N5CCN(C)CC5)cc4)CC3)c2cc1OC [Example 20, 4-(6,7-Dimethoxy-quinazolin-4-yl)-piperidine-1-carboxylic acid [4-(4-methyl-piperazin-1-yl-phenyl)]-amide]
25 nM	96 nM	O=C(Nc1ccc(N2CCOCC2)cc1)N1CCC(c2ncnc3cc(N4CC[C@@H](O)C4)ccc23)CC1 [Example 126, (R)-4-[7-(3-Hydroxy-pyrrolidin-1-yl)-quinazolin-4-yl]-piperidine-1-carboxylic acid (4-morpholin-4-yl-phenyl)-amide]
1 nM	265 nM	CS(=O)(=O)N1CC[C@@H](Oc2ccc3c(C4CCN(C(=O)Nc5ccc(N6CCCC6)cc5)CC4)ncnc3c2)C1 [Compound 177, (R)-4-[7-(1-Methanesulfonyl-pyrrolidin-3-yloxy)-quinazolin-4-yl]-piperidine-1-carboxylic acid (4-pyrrolidin-1-yl-phenyl)-amide]
10200 nM	227 nM	CN1CCN(c2ccc3ncnc(C4CCN(C(=O)Nc5ccc(N6CCOCC6)cc5)CC4)c3c2)CC1 [Compound 198, 4-[6-(4-Methyl-piperazin-1-yl)-quinazolin-4-yl]-piperidine-1-carboxylic acid (4-morpholin-4-yl-phenyl)-amide]
